Results from patent publication US20100196469A1, “Pharmaceutical Formulation containing an HMG-COA Reductase Inhibitor and method for the preparation thereof” (PHARMATHEN S.A., priority 2007, published 2010).
Counter-ions that a name gives are not always drawn.

Key:
Type in all cases: physicochemical
[1] = Compatibility test of Atorvastatin alone and Atorvastatin with Attapulgite at 40° C./75% RH (impurities)
[2] = Stability of unpacked tablets at 40° C.±2° C. and 75%±5% RH (impurities); settings: 40°/75 RH
Description: (§1) One of the main objects of the present invention was to prepare a product with acceptable stability. For this reason 3 batches of each composition were exposed to normal, intermediate and accelerated stability studies according to the current ICH guidelines.
The tablets of the above compositions were exposed at a temperature of 40° C.±2° C. and relative humidity of 75%±5% without being packed in any type of container or blister. The tablets were tested in predetermined time intervals. The results for each composition are described in the stability table (TABLE 1).

[3] = Stability after preparation and after 3 months in HDPE containers, normal and intermediate conditions (impurities); settings: for Atorvastatin Amide / Desfluoro: limit NMT 0.3%; for Atorvastatin Diepoxide: limit NMT 0.6%; for Diketo1,2-Diol + Diketoepoxide: limit NMT 1.20%; for Lactone: limit NMT 2%; for Total: total impurities; for Unknown: unknown impurity
Description: as §1
Subsequently, the tablets of compositions 2 were packed into white opaque, HDPE plastic […] C.±2° C. and relative humidity of 65%±5% for intermediate conditions. The results for composition 2 and of the active ingredient directly after preparation and after 3 months stability are described in the stability table below (TABLE 3).

Compound: CC(C)c1c(C(=O)Nc2ccccc2)c(-c2ccccc2)c(-c2ccc(F)cc2)n1CC[C@@H](O)C[C@@H](O)CC(=O)O (relative stereo) [Atorvastatin, [R—(R*,R*)]-2-(4-fluorophenyl)-b,d-dihydroxy-5-(1-methylethyl)-3-phenyl-4[(phenylamino)carbonyl]-1H -pyrrole-1-heptanoic acid, calcium salt (2:1) trihydrate]
- Diketo1,2-Diol + Diketoepoxide ([1]; limit 1.20%): 0.39%
- Atorvastatin Amide ([1]; limit NMT 0.3%): 0.05%
- Desfluoro ([1]; limit NMT 0.3%): 0.07%
- Methyl Ester ([1]; limit NMT 0.3%): 0.01%
- Atorvastatin Diepoxide ([1]; limit NMT 0.6%): 0.20%
- Lactone ([1]; limit NMT 2%): 0.34%
- Total ([1]; total impurities): 1.29%
- Atorvastatin Amide [2]: 0.07%
- Atorvastatin Diepoxide [2]: 0.34%
- Desfluoro [2]: 0.08%
- Diketo1,2-Diol + Diketoepoxide [2]: 0.69%
- Lactone [2]: 0.45%
- Total ([2]; total impurities): 1.87%
- Atorvastatin Amide ([3]; 0 months): 0.06%
- Desfluoro ([3]; 0 months): 0.06%
- Atorvastatin Diepoxide ([3]; 0 months): 0.25%
- Diketo1,2-Diol + Diketoepoxide ([3]; 0 months): 0.84%
- Lactone ([3]; 0 months): 0.07%
- Total ([3]; 0 months): 1.69%
- Unknown ([3]; 0 months): 0.34%
- Atorvastatin Amide ([3]; 3 months 25° C./60% RH): 0.06%
- Desfluoro ([3]; 3 months 25° C./60% RH): 0.03%
- Atorvastatin Diepoxide ([3]; 3 months 25° C./60% RH): 0.30%
- Diketo1,2-Diol + Diketoepoxide ([3]; 3 months 25° C./60% RH): 0.92%
- Lactone ([3]; 3 months 25° C./60% RH): 0.05%
- Total ([3]; 3 months 25° C./60% RH): 1.96%
- Unknown ([3]; 3 months 25° C./60% RH): 0.38%
- Atorvastatin Amide ([3]; 3 months 30° C./65% RH): 0.06%
- Desfluoro ([3]; 3 months 30° C./65% RH): 0.03%
- Atorvastatin Diepoxide ([3]; 3 months 30° C./65% RH): 0.38%
- Diketo1,2-Diol + Diketoepoxide ([3]; 3 months 30° C./65% RH): 1.10%
- Lactone ([3]; 3 months 30° C./65% RH): 0.05%
- Total ([3]; 3 months 30° C./65% RH): 2.12%
- Unknown ([3]; 3 months 30° C./65% RH): 0.4%
